{"source": "patent US11046647B2", "about": "“Activators of the unfolded protein response” (The Board of Trustees of the University of Illinois, priority 2018, dated 2021)", "key": {"[1]": {"system": "MCF-7", "type": "cell-based", "method": "(§1) FIG. 36. Discovery of SERK-F6 (also known as, C(−)-105, (−)-105, (R)-105, (−)-1, or (R)-1), a compound that kills ERα-positive cancer cells, a, Chemical structures of BHPI and racemic compound 1 (i.e. (±)-1), and their cytotoxic activity on T47D breast cancer cells after 24-hour incubations with concentrations as indicated in nM. Cells were stained with annexin V-FITC and PI dyes prior to analysis via flow cytometry. […] Cells were incubated with SERK-F6 or positive control, Raptinal, for 24 hours and then stained with annexin V-FITC and PI dyes and analyzed via flow cytometry. Error bars represent S.E.M of 3 independent replicates. c, IC50 values of SERK-F6 after 24-hour incubation against a panel of cancer cell lines grouped by their reported ERα status. Cell viability was measured by Alamar blue fluorescence and set relative to a vehicle control and a quantitative dead control treated with Raptinal. Error bars represent S.E.M of 3 independent experiments. d, Crystal violet staining of T47D cells after 24-hour incubations with compounds and concentrations as indicated. Image is representative of 2 independent experiments. e,f, Long-term cell culture experiment with T47D, TDG, and TYS cells. Cells were incubated for 2 weeks with compounds (1 μM), followed by compound washout, and cells were cultured for 2 months. Cell number was determined by MTS. […]"}, "[2]": {"system": "MDA-MB-231", "type": "cell-based", "method": "as §1"}, "[3]": {"system": "T47D cells", "assay": "24-hour crystal violet assay", "type": "cell-based, human", "method": "FIG. 36. Discovery of SERK-F6 (also known as, C(−)-105, (−)-105, (R)-105, (−)-1, or (R)-1), a compound that kills ERα-positive cancer cells, a, Chemical structures of BHPI and racemic compound 1 (i.e. (±)-1), and their cytotoxic activity on T47D breast cancer cells after 24-hour incubations with concentrations as indicated in nM. Cells were stained with annexin V-FITC and PI dyes prior to analysis via flow cytometry. […] Cells were incubated with SERK-F6 or positive control, Raptinal, for 24 hours and then stained with annexin V-FITC and PI dyes and analyzed via flow cytometry. Error bars represent S.E.M of 3 independent replicates. c, IC50 values of SERK-F6 after 24-hour incubation against a panel of cancer cell lines grouped by their reported ERα status. Cell viability was measured by Alamar blue fluorescence and set relative to a vehicle control and a quantitative dead control treated with Raptinal. Error bars represent S.E.M of 3 independent experiments. d, Crystal violet staining of T47D cells after 24-hour incubations with compounds and concentrations as indicated. Image is representative of 2 independent experiments. e,f, Long-term cell culture experiment with T47D, TDG, and TYS cells. Cells were incubated for 2 weeks with compounds (1 μM), followed by compound washout, and cells were cultured for 2 months. Cell number was determined by MTS."}}}
{"smiles": "O=C1Nc2c(C(F)(F)F)cccc2C1(c1ccc(O)cc1)c1ccc(OC(F)(F)F)cc1", "note": "(single isomer, unassigned; (-)) [(−)-105, 3-(4-hydroxyphenyl)-3-(4-(trifluoromethoxy)phenyl)-7-(trifluoromethyl)indolin-2-one]", "values": [{"measurement": "cytotoxicity", "setting": "[1]", "result": "cytotoxic"}, {"measurement": "cytotoxicity", "setting": "[2]", "result": "minimal effects"}, {"measurement": "cell killing", "setting": "[3]", "result": "quantitatively kills"}]}
